Assay [1] deals with T1, DNA-PK (Homo sapiens, UniProt P78527). In words: DNA-PK cellular assay (pDNA-PK Ser2056 sandwich ELISA, NCS-induced DSBs). Type of assay: cell-based. More on the design: endogenous in cells; host or cells: A549 (human NSCLC). The settings on record: pDNA-PK (Ser2056) in A549 cells, NCS 50 ng/ml, 15 minutes. From the text:
DNA-PK is recruited to and activated by double-strand breaks (DSB) in DNA and plays a critical role in the non-homologous end-joining (NHEJ) repair mechanism. Upon activation, DNA-PK undergoes rapid autophosphorylation at Ser2056. The measure of pDNA-PK (Ser2056) in response to DNA DSBs provides a cellular signaling assay to evaluate potential DNA-PK kinase inhibitors.
Neocarzinostatin (NCS) was used as a radiomimetic to induce DNA DSBs. The sandwich ELISA used the Meso Scale Discovery electrochemiluminescence technology platform which typically provides greater sensitivity than traditional ELISA formats.
A549 (human NSCLC) cells are plated at 25,000 cells/well in 100 uL of DMEM (Invitrogen cat #11995-040) supplemented with 1% Pen/Strep (Invitrogen cat #15070-063) and 10% FBS (Hyclone cat #SH30071.03HI) on black clear bottom 96 well plates (Costar #3904) and allowed to adhere overnight at 37° C. in 5% CO2. The following day, the compounds and NCS solutions are prepared by adding 100 ul of DMEM growth media per well in a Corning polypropylene V-bottom deep well plate (cat #3357). The HP Compound Dilution D300 instrument was used to add compounds to the appropriate wells using the setting logarithmic and 16-point titration singlet.
The DMEM NCS solution was prepared by adding NCS to DMEM media at 200 ng/ml (final assay concentration, 50 ng/ml). 100 ul of the DMEM/NCS solution is added to the wells with the compounds. 100 ul of this solution is then immediately added to the A549 cells. The cells are then incubated for 15 minutes at 37° C.
The complete lysis buffer is prepared by adding 1% Phosphatase inhibitor (Sigma cat #P2850) and 1% Protease Inhibitor (Sigma cat #P8340) to the Lanthascreen cellular assay lysis buffer (Invitrogen cat #PV5598). The media from the plate was removed by flicking and patting dry. 60 uL/well of the complete lysis buffer is added to each well. These plates are then incubated for at least 5 minutes in the lysis buffer at room temperature to ensure complete lysis. At this point the lysates can be transferred to prepared ELISA plates.
The prepared ELISA plates were prepared blocking the Mesoscale Goat-Anti-Mouse (GAM) plates with 150 uL/well of 3% Blocker A (Mesoscale cat #R93-BA) for one hour at room temperature with shaking. The capture antibody is prepared by diluting the mouse monoclonal anti-total DNA-PK (AbCAM cat #ab1832) to 3 ug/mL in 1% Blocker A. The blocked plates rinsed once with 200 uL D-PBS. The capture antibody (25 ul/well) was added to each well and allowed to incubate for an hour at room temperature while shaking. This was rinsed once with 200 ul D-PBS before adding 25 uL of the prepared cell lysate from the cell plates to the Mesoscale GAM ELISA plate. The lysate is then incubated on the plates for one hour at room temperature with shaking. The detection antibody (Epitomics rabbit anti-pS2056-DNA-PK) is prepared at a 1/1000 dilution (to a final concentration of 450 ng/mL) in 1% Blocker A. The GAM plates are washed once with 200 uL of D-PBS and then 25 uL/well of the detection antibody is added to the plate. This incubates for one hour at room temperature with shaking. The Sulfotag is prepared by adding Sulfo-Tag Goat-Anti-Rabbit antibody (Mesoscale cat #R32AB-1) at a 1/500 dilution (1 ug/mL) to 1% Blocker A. The GAM plates are washed with 200 uL of D-PBS and then 25 uL of the Sulfotag preparation is added to each well. Once the plates have been incubated with the final solution, the Sulfotag, for 1 hour, they are washed once with 200 uL of D-PBS. The 1× Read Buffer (Mesoscale cat #R32-TC) is made by diluting the 4× buffer in ddH20. 150 uL of 1× buffer is added to each well of the GAM plate and then the plate is read on the Sector Imager 2400. The readout (electrochemiluminescence) was plotted against the concentration of each compound and the IC50s were generated using Prism software (GraphPad Prism version 6.0e for Macintosh). […]
A general note: An ELISA detects its analyte on a solid surface through an enzyme-linked reagent.

For assay [2], the target named is T1, DNA-PK. In words: DNA-PK inhibition assay (radiometric 33P-ATP kinase assay). Type of assay: biochemical. Conditions: competitive tight-binding fit. Here is the method:
Compounds were screened for their ability to inhibit DNA-PK kinase using a standard radiometric assay. Briefly, in this kinase assay the transfer of the terminal ^33P-phosphate in ^33P-ATP to a peptide substrate is interrogated. The assay was carried out in 384-well plates to a final volume of 50 μL per well containing approximately 6 nM DNA-PK, 50 mM HEPES (pH 7.5), 10 mM MgCl2, 25 mM NaCl, 0.01% BSA, 1 mM DTT, 10 μg/mL sheared double-stranded DNA (obtained from Sigma), 0.8 mg/mL DNA-PK peptide (Glu-Pro-Pro-Leu-Ser-Gln-Glu-Ala-Phe-Ala-Asp-Leu-Trp-Lys-Lys-Lys, obtained from American Peptide), and 100 μM ATP. Accordingly, compounds of the invention were dissolved in DMSO to make 10 mM initial stock solutions. Serial dilutions in DMSO were then made to obtain the final solutions for the assay. A 0.75 μL aliquot of DMSO or inhibitor in DMSO was added to each well, followed by the addition of ATP substrate solution containing ^33P-ATP (obtained from Perkin Elmer). The reaction was started by the addition of DNA-PK, peptide and ds-DNA. After 45 min, the reaction was quenched with 25 μL of 5% phosphoric acid. The reaction mixture was transferred to MultiScreen HTS 384-well PH plates (obtained from Millipore), allowed to bind for one hour, and washed three times with 1% phosphoric acid. Following the addition of 50 μL of Ultima Gold™ high efficiency scintillant (obtained from Perkin Elmer), the samples were counted in a Packard TopCount NXT Microplate Scintillation and Luminescence Counter (Packard BioScience). The Ki values were calculated using Microsoft Excel Solver macros to fit the data to the kinetic model for competitive tight-binding inhibition. In Tables 1 and 2 below, Ki of less than 0.001 micromolar for the inhibition of DNA-PK is indicated as “A”; Ki of equal to or greater than 0.001 micromolar and less than 0.01 micromolar for the inhibition of DNA-PK as “B”; Ki of equal to or greater than 0.01 micromolar and less than 0.1 micromolar for the inhibition of DNA-PK as “C”; Ki of equal to or greater than 0.1 micromolar and less than 1 micromolar for the inhibition of DNA-PK for “D”; and Ki of equal to or greater than 1 micromolar as “E.”

As a reminder, the IC50 is the concentration that gives 50% inhibition. As a reminder, the Ki is a dissociation constant, usually derived from enzyme kinetics or from competition with a known ligand. Low values mean higher affinity, high ones lower affinity.

At DNA-PK [1] (Table 1), `O=C1c2ccccc2C(=O)N1[C@H]1CC[C@@H](Oc2cc(N3CCOCC3)cc3ncncc23)CC1` [Compound 7, 2-[4-(7-morpholinoquinazolin-5-yl)oxycyclohexyl]isoindoline-1,3-dione] registered a 50% inhibitory concentration (IC50) of 100 to 1000 nM. The same molecule yielded an inhibition constant (Ki) on DNA-PK [2] (Table 1, 100 μM ATP) of 0.001 to 0.01 µM.
`COc1ccc(COc2cc(N3CCOCC3)cc3ncncc23)cc1` [Compound 52, 4-[5-[(4-methoxyphenyl)methoxy]quinazolin-7-yl]morpholine]: at DNA-PK [1] (Table 2), the concentration for half-maximal inhibition (IC50) is ≥ 1000 nM. The molecule further showed a Ki at DNA-PK [2] (Table 2, 100 μM ATP) of 0.001 to 0.01 µM.
Turning to `Cn1ccc(N[C@H]2CC[C@@H](Oc3cc(N4CCOCC4)cc4ncncc34)CC2)n1` [Compound 24, 1-methyl-N-((1s,4s)-4-((7-morpholinoquinazolin-5-yl)oxy)cyclohexyl)-1H-pyrazol-3-amine], the IC50 on DNA-PK [1] (Table 1) is < 100 nM. The Ki on DNA-PK [2] (Table 1, 100 μM ATP) is < 0.001 µM.
Turning to `Cc1nc2c(c(N[C@H]3CC[C@@H](Oc4cc(N5CCOCC5)cc5ncnc(C#N)c45)CC3)n1)OCC2` [Compound 2, 5-[4-[(2-methyl-6,7-dihydrofuro[3,2-d]pyrimidin-4-yl)amino]cyclohexoxy]-7-morpholino-quinazoline-4-carbonitrile], the IC50 on DNA-PK [1] (Table 1) was < 100 nM. For the same molecule, the inhibition constant (Ki) at DNA-PK [2] (Table 1, 100 μM ATP) is < 0.001 µM.
`CNC(=O)c1ccnc(N[C@H]2CC[C@@H](Oc3cc(N4CCOCC4)cc4nc[nH]c(=O)c34)CC2)n1` [Compound 11, N-methyl-2-[[4-[(7-morpholino-4-oxo-3H-quinazolin-5-yl)oxy]cyclohexyl]amino]pyrimidine-4-carboxamide]: the IC50 against DNA-PK [1] (Table 1) is ≥ 1000 nM. Also, the inhibitory constant (Ki) at DNA-PK [2] (Table 1, 100 μM ATP) is < 0.001 µM.
Turning to `CNC(=O)c1ccnc(N[C@H]2CC[C@@H](Oc3cc(N4CCOCC4)cc4ncncc34)CC2)n1` [Compound 8, N-methyl-2-[[4-(7-morpholinoquinazolin-5-yl)oxycyclohexyl]amino]pyrimidine-4-carboxamide], at DNA-PK [1] (Table 1), the IC50 was < 100 nM. The Ki at DNA-PK [2] (Table 1, 100 μM ATP) was < 0.001 µM.
Turning to `Cc1nccc(N[C@H]2CC[C@@H](Oc3cc(N4CCOCC4)cc4ncncc34)CC2)n1` [Compound 3, 2-methyl-N-[4-(7-morpholinoquinazolin-5-yl)oxycyclohexyl]pyrimidin-4-amine], the IC50 against DNA-PK [1] (Table 1) was < 100 nM. The Ki on DNA-PK [2] (Table 1, 100 μM ATP) was < 0.001 µM.
With `CCOC(=O)N[C@H]1CC[C@@H](Oc2cc(N3CCOCC3)cc3ncncc23)CC1` [Compound 22, ethyl ((1s,4s)-4-((7-morpholinoquinazolin-5-yl)oxy)cyclohexyl)carbamate], at DNA-PK [1] (Table 1), the IC50 was < 100 nM. In addition, at DNA-PK [2] (Table 1, 100 μM ATP), the Ki was < 0.001 µM.
As to `CNC(=O)c1ccnc(N[C@H]2CC[C@@H](Oc3cc(N4CCOCC4)cc4nc(C)ncc34)CC2)n1` [Compound 19], on DNA-PK [1] (Table 1), the IC50 is < 100 nM. The molecule also displayed a Ki at DNA-PK [2] (Table 1, 100 μM ATP) of 0.001 to 0.01 µM.
In the case of `Cc1nc2c(c(N[C@H]3CC[C@@H](Oc4cc(N5CCOCC5)cc5ncncc45)CC3)n1)OCC2` [Compound 1, 2-methyl-N-[4-(7-morpholinoquinazolin-5-yl)oxycyclohexyl]-6,7-dihydrofuro[3,2-d]pyrimidin-4-amine], at DNA-PK [1] (Table 1), the half-maximal inhibitory concentration (IC50) was < 100 nM. Also, the Ki on DNA-PK [2] (Table 1, 100 μM ATP) is < 0.001 µM.
Take `COc1ncnc2cc(N3CCOCC3)cc(O[C@H]3CC[C@@H](Nc4ccnc(C)n4)CC3)c12` [Compound 6, N-[4-(4-methoxy-7-morpholino-quinazolin-5-yl)oxycyclohexyl]-2-methyl-pyrimidin-4-amine]: the concentration for half-maximal inhibition (IC50) against DNA-PK [1] (Table 1) was < 100 nM. In addition, the Ki at DNA-PK [2] (Table 1, 100 μM ATP) is < 0.001 µM.
In the case of `O=C(N[C@H]1CC[C@@H](Oc2cc(N3CCOCC3)cc3ncncc23)CC1)c1ccncn1` [Compound 15, N-[4-(7-morpholinoquinazolin-5-yl)oxycyclohexyl]pyrimidine-4-carboxamide], the half-inhibitory concentration (IC50) on DNA-PK [1] (Table 1) is < 100 nM. In addition, at DNA-PK [2] (Table 1, 100 μM ATP), the Ki was < 0.001 µM.
As to `CN1CCN(c2cc(N[C@H]3CC[C@@H](Oc4cc(N5CCOCC5)cc5ncncc45)CC3)ncn2)CC1` [Compound 14, 6-(4-methylpiperazin-1-yl)-N-[4-(7-morpholinoquinazolin-5-yl)oxycyclohexyl]pyrimidin-4-amine], the IC50 against DNA-PK [1] (Table 1) was < 100 nM. The inhibitory constant (Ki) on DNA-PK [2] (Table 1, 100 μM ATP) was < 0.001 µM.
In the case of `COc1ccc(COc2cc(N3CCOCC3)cc3ncnc(OC)c23)cc1` [Compound 53, 4-[4-methoxy-5-[(4-methoxyphenyl)methoxy]quinazolin-7-yl]morpholine], the concentration for half-maximal inhibition (IC50) against DNA-PK [1] (Table 2) is ≥ 1000 nM. For the same molecule, on DNA-PK [2] (Table 2, 100 μM ATP), the Ki lay in the range of 0.01 to 0.1 µM.
With `CNC(=O)c1ccnc(N[C@H]2CC[C@@H](Oc3cc(N4CCOCC4)cc4ncnc(C)c34)CC2)n1` [Compound 13, N-methyl-2-[[4-(4-methyl-7-morpholino-quinazolin-5-yl)oxycyclohexyl]amino]pyrimidine-4-carboxamide], on DNA-PK [1] (Table 1), the IC50 is < 100 nM. Further, the inhibitory constant (Ki) on DNA-PK [2] (Table 1, 100 μM ATP) was < 0.001 µM.
Regarding `COc1ccc(COc2cc(N3CCOCC3)cc3ncnc(C#N)c23)cc1` [Compound 55, 5-[(4-methoxyphenyl)methoxy]-7-morpholino-quinazoline-4-carbonitrile], at DNA-PK [1] (Table 2), the concentration for half-maximal inhibition (IC50) is ≥ 1000 nM. At DNA-PK [2] (Table 2, 100 μM ATP), the Ki fell in the range of 0.001 to 0.01 µM.
